# Test results reported in patent US20110212137A1, “INHALABLE PHARMACEUTICAL COMPOSITION” (TEVA BRANDED PHARMACEUTICAL PRODUCTS R&D, INC., priority 2010, published 2011).
# Tested on: Asthma patients
# Assay: Retrospective observational cohort study (UK General Practice Research Database): odds of successful asthma control after ICS increase
# Assay type: in vivo
# Conditions: compared with Qvar; as the primary proxy plus average daily prescribed salbutamol no more than 200 mcg and terbutaline 500 mcg; 12 month follow-up
# Source text: Qvar® and other inhaled corticosteroids (ICS) CFC-beclometasone (BDP) and fluticasone propionate (FP) were compared in a large representative, UK clinical database.
# Patients were eligible if they had data available for the twelve months prior to AND twelve months after the date of ICS increase. Multiple logistic regression, adjusted for baseline severity, provided odds of successful asthma control (no asthma hospital attendances, oral steroids, consultations or hospital admissions for lower respiratory tract infections requiring antibiotics) during 12 month follow-up. Poisson regression was used to compare asthma exacerbation rates (unscheduled hospital admissions/A&E attendances for asthma or use of oral steroids).
# Study Design: A retrospective, observational, cohort study design was used, consisting of two time periods: a baseline period for confounder definition (minimum of one year before index prescription date) and an outcome period of one year post-index prescription date. The study design is shown in schematic format in FIG. 1.
# Statistical Analysis: Descriptive statistics were used to compare baseline outcomes. Multiple logistic regression, adjusted for baseline severity and other potential confounders found at baseline, was used to determine the odds of successful asthma control. Poisson regression was used to compare exacerbation rates. […]
smiles,measurement,value
"CCC(=O)O[C@]1(C(=O)SCF)[C@H](C)C[C@H]2[C@@H]3C[C@H](F)C4=CC(=O)C=C[C@]4(C)[C@@]3(F)[C@@H](O)C[C@@]21C [FP, fluticasone propionate]","Adjusted odds ratio for successful asthma control, revised definition including SABA use",0.90
